Data taken from patent US20250049741A1, “COMPOSITION FOR PREVENTING OR TREATING ALZHEIMER'S DISEASE COMPRISING PHOSPHOLIPASE C ACTIVATOR AS AN ACTIVE INGREDIENT” (Korea University Research and Business Foundation, priority 2021, published 2025).

How the values were obtained:
[1] = test system: CA1 PCs in rat hippocampal slices; assay: Ex vivo eCB / S-eCB mobilization protocol: eIPSC amplitudes by whole-cell voltage-clamp; format: cell-based, Sprague-Dawley rats; details: m-3M3FBS 30 μM
Description: To test the acute effect of AβO on hippocampal S-eCB mobilization, hippocampal slices from Sprague-Dawley rats (SD, 2 to 3 weeks old, DaeHan Biolink, Co., Ltd., Korea) were used. Male and female rats were used in all in vitro experiments. To test the chronic effect of AβO on hippocampus-dependent memory impairments caused by amyloidosis, the 5XFAD mouse model (6 to 7 months old, #34840-JAX, Jackson Laboratory, USA), which is a mouse model of Alzheimer's disease that mimics AβO depositions, was used. C57BL/6 mice (6 to 7 months old, KOATECH, Korea) were used as wild type (WT) control mice for 5XFAD mice. Male 5XFAD and C57BL/6 mice were used for all in vivo behavioral experiments. The 5XFAD mouse genotypes were identified by polymerase chain reaction (PCR) using DNA extracted from the tails of the mice. All animal-related procedures followed the guidelines of the Institutional Animal Care and Use Committee of Korea University (guidelines for SD rats: KUIACUC-2017-103, guidelines for C57BL/6 and 5XFAD mice: KUIACUC-2019-0068).
(§1) Soluble AβO was prepared according to a previous study (BMC Biol. 2020; 18(1):7). Specifically, Aβ1-42 (Aβ) and a scrambled form of Aβ as a control peptide were purchased in powder form. Aβ and scrambled Aβ were dissolved for monomerization in 1,1,1,3,3,3-hexafluoro-2-propanol (HFIP, Sigma Aldrich, USA) at a final concentration of 1 mM, and the solution was incubated for 90 minutes. After the HFIP was evaporated, the remaining thin and clear film of Aβ or scrambled Aβ was dissolved in dimethyl sulfoxide (DMSO, Sigma Aldrich, USA) to prepare 5 mM Aβ or scrambled Aβ stocks, which were aliquoted and frozen at −20° C. Aβ or scrambled Aβ stocks were thawed and diluted to 100 μM in artificial cerebrospinal fluid (ACSF). Thereafter, Aβ or scrambled Aβ stocks were incubated for oligomerization for 18 hours. The final AβO or scrambled AβO stock solution was diluted to a final concentration of 200 nM in 31.2 ml of ACSF, and rat hippocampal slices were treated with the stock solution for 20 minutes in a recovery chamber before measurement of brain signals. In control experiments for normal brain conditions using a vehicle, rat hippocampal slices were treated with 0.004% DMSO in ACSF.
The brains of SD rats were isolated following decapitation under isoflurane-induced anesthesia and transferred into ice-cold ACSF containing 126 mM NaCl, […], 1.25 mM NaH2PO4, 2 mM MgSO4, 2 mM CaCl2), 25 mM NaHCO3, and 10 mM glucose (pH 7.2 to 7.4). The ACSF was continuously oxygenated with 95% O2/5% CO2. Horizontal hippocampal slices (350 μm thickness) were obtained using a vibratome (VT1000S, Leica Biosystems, Germany) and immediately incubated at room temperature in a submerged chamber perfused with oxygenated ACSF for at least 1 hour.
To quantify eCB mobilization, the changes in eCB mobilization-induced Schaffer collateral (SC) nerve bundle stimulation-evoked inhibitory postsynaptic current (eIPSC) amplitudes were measured in CA1 PCs through the whole-cell voltage-clamp technique. The whole-cell voltage-clamp technique in CA1 PCs was performed using a MultiClamp 700B amplifier (Molecular Devices, USA) under an infrared differential interference contrast video microscope (BW51W, Olympus, Japan), using a borosilicate electrode (tip resistance: 4 to 8 MΩ) that was filled with an intracellular solution containing 145 mM CsCl, 10 mM HEPES, 2 mM EGTA, 4 mM QX-314, 4 mM Mg-ATP, 0.4 mM […], pH 7.2 to 7.3, and 270 to 280 mOsm/L. To record eIPSCs in the CA1 PCs, a stimulating electrode (A-M Systems, USA) was placed in a stratum radiatum to stimulate the SC pathway that carries CA3 PC axons. Electrical stimulation pulses of 200 to 400 μA amplitudes (20 to 40 μs) were generated using a constant current stimulator (model DS3, Digitimer Ltd., UK). eIPSCs were recorded in CA PCs every 1 second while maintaining the membrane potential at −70 mV.

PLCβ1 = assay: Western blot of PLCβ1 in rat hippocampal slices; format: cell-based, Sprague-Dawley rats; details: AβO+m-3M3FBS-treated rat hippocampal slices; similar to DMSO-treated slices
Procedure: as §1, with “The final AβO or scrambled AβO stock solution was diluted to a final concentration of 200 nM in 31.2 ml of ACSF, and rat hippocampal slices were treated with the stock solution for 20 minutes in a recovery chamber before measurement of brain signals. In control experiments for normal brain conditions using a vehicle, rat hippocampal slices were treated with 0.004% DMSO in ACSF.” left out
Hippocampal PLCβ1 of SD rats and C57BL/6 or 5XFAD mice were prepared from homogenized hippocampi dissolved in 200 μL of RIPA buffer (Bio-Rad, USA), and were resolved on non-reducing 10% tris-glycine-sodium dodecyl sulfate-polyacrylamide gel electrophoresis (SDS-PAGE) gels (Bio-Rad, USA) using 4×Laemmli sample buffers (Bio-Rad, USA). […] Immunoreactivity was confirmed with enhanced chemiluminescence (Bio-Rad, USA) using a Fluorchem E system (ProteinSimple, USA) and analyzed with ImageJ software. […]

Cc1cc(C)c(S(=O)(=O)Nc2cccc(C(F)(F)F)c2)c(C)c1 [m-3M3FBS]
synergistic enhancement of the suppression of eIPSC amplitudes (S-eCB mobilization) in AβO-treated slices ([1]; AβO-treated rat hippocampal slices): completely recovered
suppression of eIPSC amplitudes, recordings in DMSO-treated and scrambled AβO-treated slices ([1]; DMSO-treated and scrambled AβO-treated rat hippocampal slices): not significantly different
PLCβ1 protein levels in AβO-treated slices (PLCβ1): completely restored
